Test system: NSCs
Test: Proliferation marker expressions (BrdU, ki-67) of the NSCs, immunofluorescence staining
Type: cell-based, mice
Conditions: 0.1, 1, 10 μM for 16 hours, especially 1 μM
Protocol: To prepare the NSCs, after removal of meninges, subventricular zones (SVZ) of lateral ventricles from adult mice brain (4 week-of-age) are aseptically isolated and dissociated as previously described (J Cell Sci 2006; 119, 4467-4474). All steps are operated under sterile conditions. Then, neurosphere culture are prepared in neurobasal (NB) medium (Gibco BRL) supplemented with 2% of B27 (Gibco BRL), 2 mM of L-glutamine (PAN Biotech), 100 U/ml of penicillin/[…] of streptomycin (Gibco BRL). For maintenance and expansion of the cultures, the NB/B27 is further supplemented with 2 μg/mL of heparin (Sigma), 20 ng/mL of FGF-2 (R&D Systems) and 20 ng/mL of EGF (R&D Systems). […] For clonal/low density cultures, primary neurospheres grown at high density are dissociated into a single cell suspension and reseeded into 96-well plates at 100 cells per ml of media and the number of newly formed neurospheres is counted after 7 days. In addition, the Bmi-1 expressions, SOX2 expressions, Nestin expressions, Musashi-1 expressions, BrdU expressions and ki-67 expressions of the newly formed neurospheres are determined by the immunofluorescence staining.
To measure the effect of the administration of the Compound 1 on proliferation marker expressions of the NSCs, the NSCs treated with the Compound 1 are detected by the immunofluorescence staining. […]

With `COC(=O)C1=CO[C@@H](O)[C@@H]2C(COC(=O)[C@@H](N)Cc3ccccc3)=CC[C@H]12` [Compound 1] the “proportion of the BrdU+ cells in the neurosphere culture” value (FIG. 12B) was “increases the proportion” and the “proportion of the ki-67+ cells in the neurosphere culture” value (FIG. 12C) was “increases the proportion”.

Reference: patent US10035791B2, “Bicyclic compound and pharmaceutical composition thereof for treating stroke and use thereof” (China Medical University, priority 2016, dated 2018)
